Measurements as given in patent US10266542B2, “EZH2 inhibitors” (priority 2017, dated 2019).
Like-named read-outs stand apart in the source and are kept apart here.

Tests used:
purified EZH2 enzyme = purified EZH2 enzyme (Homo sapiens (Human), UniProt Q15910); assay: biochemical; conditions: purified EZH2, 4 μM SAM, histone 3.3 substrate, 30° C. three hours, fluorescence polarization readout
[1] = test system: EZH2-mediated histone H3 Lys27 trimethylation in Pfeiffer cells (mutant EZH2 A677G); assay: Tri-Methyl Histone H3 (Lys 27) Sandwich ELISA in Pfeiffer cells; assay type: cell-based, human
Method: Briefly, Pfeiffer cells were cultured in RPMI medium supplemented with 10% fetal bovine serum and 1% penicillin and 1% streptomycin in 96 well culture plates at 37° C. to a density of 8000 cells/90 μl/well and the cells were harvested. […] The plates were incubated at 37° C. for 96 hours.
After incubation, the cells were pelleted by centrifugation in a pre-cooled 4° C. rotor at 1,100 rpm for 10 min and the supernatant was removed by aspiration. The cell pellet was resuspended in 55 μl of Lysis Buffer (0.4M HCl) and incubated on ice with periodic shaking for 30 minutes. The lysed cells were subjected to centrifugation at 4,200 rpm for 10 min at 4° C. and the supernatant containing acid-soluble proteins was collected and the remainder discarded.
A 65 μl aliquot of each cell lysate was added to a well of a microwell strip, the microwells were sealed using tape and incubated either at 37° C. for two hours or at 4° C. overnight. After incubation, the tape was removed at the microwells were washed four times using 200 μl of 1× Wash Buffer. To each washed microwell, a 100 μl aliquot of an anti-trimethyl histone H3 Lys27 Detection Antibody solution was added and the microwells were incubated at 37° C. for one hour. The Detection Antibody solution was removed by aspiration and the wells were washed four times each using 200 μl of 1× Wash Buffer.
A 100 μl aliquot of an HRP-linked secondary antibody was added to each well, the wells were sealed with tape and incubated at 37° C. for 30 min. The HRP-linked secondary antibody solution was removed by aspiration and the wells were washed four times using 200 μl of 1× Wash Buffer. A 100 μl aliquot of a TMB substrate was added to each well, the wells were sealed with tape and incubated at 37° C. for 10 min or 25° C. for 30 min. The reaction was stopped by the addition of 100 μl aliquot of a STOP solution and the plate was shaken briefly. The degree of histone H3 trimethylation was determined using a spectrophotometric readout by measuring the absorbance at 450 nm and then calculating the amount of trimethylated histone H3.

[2] = Pfeiffer cells (DLBCL, EZH2 A677G), 96 hours incubation, H3K27me3 ELISA, absorbance at 450 nm, read-out: IC50
[3] = Homo sapiens, Pfeiffer cells (DLBCL, EZH2 A677G), 96 hours incubation, H3K27me3 ELISA, absorbance at 450 nm, read-out: IC50

Row | Compound | IC50 (purified EZH2 enzyme) | IC50 [1, 2] | IC50 ([1]; Homo sapiens, Pfeiffer, 96 h) | IC50 [1, 3]
1 | 5,8-dichloro-7-(3,5-dimethyltriazol-4-yl)-2-[(7-methyl-5-oxo-1,6-dihydropyrrolo[2,3-c]pyridin-4-yl)methyl]-3,4-dihydroisoquinolin-1-one [Example 15] | 2 nM | 6 nM |  | 
2 | 7-[[5-bromo-8-chloro-7-(3,5-dimethyltriazol-4-yl)-1-oxo-3,4-dihydroisoquinolin-2-yl]methyl]-4-methyl-5H-furo[3,2-c]pyridin-6-one [Example 7] | 3 nM | 30 nM |  | 
3 | Cc1[nH]c(=O)c(CN2CCc3c(Cl)cc(OC(C)C)c(Cl)c3C2=O)c2occc12 [Example 1, 7-((5,8-dichloro-7-isopropoxy-1-oxo-3,4-dihydroisoquinolin-2(1H)-yl)methyl)-4-methylfuro[3,2-c]pyridin-6(5H)-one] | 6 nM |  | 759 nM | 
4 | Cc1[nH]c(=O)c(CN2CCc3c(Cl)cc(N4CC5(CCOCC5)C4)c(Cl)c3C2=O)c2occc12 [Example 2, 7-((5,8-dichloro-1-oxo-7-(7-oxa-2-azaspiro[3.5]nonan-2-yl)-3,4-dihydroisoquinolin-2(1H)-yl)methyl)-4-methylfuro[3,2-c]pyridin-6(5H)-one] | 5 nM |  |  | 273 nM
5 | CCN(c1cc(Cl)c2c(c1Cl)C(=O)N(Cc1c(=O)[nH]c(C)c3ccoc13)CC2)C1CCOCC1 [Example 3, 7-((5,8-dichloro-7-(ethyl(tetrahydro-2H-pyran-4-yl)amino)-1-oxo-3,4-dihydroisoquinolin-2(1H)-yl)methyl)-4-methylfuro[3,2-c]pyridin-6(5H)-on] | 5 nM |  |  | 31 nM
6 | Cc1[nH]c(=O)c(CN2CCc3c(Cl)cc(OC(C)C)c(Cl)c3C2=O)c2cc[nH]c12 [Example 4, 5,8-dichloro-7-isopropoxy-2-((7-methyl-5-oxo-5,6-dihydro-1H-pyrrolo[2,3-c]pyridin-4-yl)methyl)-3,4-dihydroisoquinolin-1(2H)-one] | 202 nM |  |  | 1040 nM
7 | Cc1[nH]c(=O)c(CN2CCc3c(Cl)cc(N4CC5(CCOCC5)C4)c(Cl)c3C2=O)c2cc[nH]c12 [Example 5, 5,8-dichloro-2-((7-methyl-5-oxo-5,6-dihydro-1H-pyrrolo[2,3-c]pyridin-4-yl)methyl)-7-(7-oxa-2-azaspiro[3.5]nonan-2-yl)-3,4-dihydroisoquinolin-1(2H)-one] | < 0.5 nM |  |  | 17 nM
8 | Cc1[nH]c(=O)c(CN2CCc3ccc(OC(C)C)c(Cl)c3C2=O)c2occc12 [Example 6, 7-((8-chloro-7-isopropoxy-1-oxo-3,4-dihydroisoquinolin-2(1H)-yl)methyl)-4-methylfuro[3,2-c]pyridin-6(5H)-one] | 7 nM |  |  | 44 nM
9 | Cc1cc2c(C)[nH]c(=O)c(CN3CCc4c(Cl)cc(OC(C)C)c(Cl)c4C3=O)c2o1 [Example 8, 7-((5,8-dichloro-7-isopropoxy-1-oxo-3,4-dihydroisoquinolin-2(1H)-yl)methyl)-2,4-dimethylfuro[3,2-c]pyridin-6(5H)-one] | 95 nM |  |  | 
10 | COC(c1cc(Cl)c2c(c1Cl)C(=O)N(Cc1c(=O)[nH]c(C)c3ccoc13)CC2)C1COC1 (centres unmarked) [Example 9, 7-((5,8-dichloro-7-(methoxy(oxetan-3-yl)methyl)-1-oxo-3,4-dihydroisoquinolin-2(1H)-yl)methyl)-4-methylfuro[3,2-c]pyridin-6(5H)-one] | 4 nM |  | 126 nM | 
11 | COC(c1cc(Cl)c2c(c1Cl)C(=O)N(Cc1c(=O)[nH]c(C)c3ccoc13)CC2)C1CN(C)C1 (centres unmarked) [Example 10, 7-((5,8-dichloro-7-(methoxy(1-methylazetidin-3-yl)methyl)-1-oxo-3,4-dihydroisoquinolin-2(1H)-yl)methyl)-4-methylfuro[3,2-c]pyridin-6(5H)-one] |  |  |  | 336 nM
12 | COC(c1cc(Cl)c2c(c1Cl)C(=O)N(Cc1c(=O)[nH]c(C)c3[nH]ccc13)CC2)C1CN(C)C1 (centres unmarked) [Example 11, 5,8-dichloro-7-(methoxy(1-methylazetidin-3-yl)methyl)-2-((7-methyl-5-oxo-5,6-dihydro-1H-pyrrolo[2,3-c]pyridin-4-yl)methyl)-3,4-dihydroisoquinolin-1(2H)-one] | 10 nM |  |  | 12 nM
13 | COC(c1cc(Cl)c2c(c1Cl)C(=O)N(Cc1c(=O)[nH]c(C)c3sccc13)CC2)C1COC1 (centres unmarked) [Example 12, 4-((5,8-dichloro-7-(methoxy(oxetan-3-yl)methyl)-1-oxo-3,4-dihydroisoquinolin-2(1H)-yl)methyl)-7-methylthieno[2,3-c]pyridin-5(6H)-one] | 37 nM |  |  | 330 nM
14 | Cc1noc(C)c1-c1cc(Cl)c2c(c1Cl)C(=O)N(Cc1c(=O)[nH]c(C)c3[nH]ccc13)CC2 [Example 13, 5,8-dichloro-7-(3,5-dimethylisoxazol-4-yl)-2-((7-methyl-5-oxo-5,6-dihydro-1H-pyrrolo[2,3-c]pyridin-4-yl)methyl)-3,4-dihydroisoquinolin-1 (2H)-one] | 2 nM |  |  | 
15 | Cc1noc(C)c1-c1cc(Cl)c2c(c1Cl)C(=O)N(Cc1c(=O)[nH]c(C)c3ccoc13)CC2 [Example 16, 7-((5,8-dichloro-7-(3,5-dimethylisoxazol-4-yl)-1-oxo-3,4-dihydroisoquinolin-2(1H)-yl)methyl)-4-methylfuro[3,2-c]pyridin-6(5H)-one] | 3 nM |  |  | 7 nM
16 | COC(c1cc(Cl)c2c(c1Cl)C(=O)N(Cc1c(=O)[nH]c(C)c3[nH]ccc13)CC2)C1COC1 (centres unmarked) [Example 17, 5,8-dichloro-7-[methoxy(oxetan-3-yl)methyl]-2-[(7-methyl-5-oxo-1,6-dihydropyrrolo[2,3-c]pyridin-4-yl)methyl]-3,4-dihydroisoquinolin-1-one] | 1 nM |  |  | 
17 | COC(c1cc(Cl)c2c(c1Cl)C(=O)N(Cc1c(=O)[nH]c(C)c3ccoc13)CC2)C1CS(=O)(=O)C1 (centres unmarked) [Example 18, 7-((5,8-dichloro-7-((1,1-dioxidothietan-3-yl)(methoxy)methyl)-1-oxo-3,4-dihydroisoquinolin-2(1H)-yl)methyl)-4-methylfuro[3,2-c]pyridin-6(5H)-one] | 2 nM |  |  | 78 nM
18 | Cc1[nH]c(=O)c(CN2CCc3c(Cl)cc(C(C)C4COC4)c(Cl)c3C2=O)c2cc[nH]c12 (centres unmarked) [Example 19, 5,8-dichloro-2-[(7-methyl-5-oxo-1,6-dihydropyrrolo[2,3-c]pyridin-4-yl)methyl]-7-[1-(oxetan-3-yl)ethyl]-3,4-dihydroisoquinolin-1-one] | 2 nM |  |  | 78 nM
